This passage reports IC50, Tubulin polymerization ratio and T/C results from ChEMBL document CHEMBL1153670 (Bioorg Med Chem Lett, 1995).

Data set [1] relates to HCT-116. The data set is described as follows: cells. The conditions noted are these: Homo sapiens.
In data set [2] the test system is HCT-116. The data set is described as follows: Potency relative to paclitaxel in a tubulin polymerization assay in HCT116 cell line. Type of data set: functional, Homo sapiens.
Data set [3] deals with HCT-116. The data set is described as follows: In vitro cytotoxicity was determined by inhibition against HCT116 cell line proliferation after 72 hours of incubation. Type of data set: cell-based. The conditions noted are these: Homo sapiens, HCT-116, 72 h.
Another data set has as its system M109. The data set is described as follows: In vivo cytotoxicity of intraperitoneally administered compound was determined against ip implanted murine M-109 lung carcinoma; NA means not active. Type of data set: organism-based. The conditions noted are these: mouse.

The structures appear in SMILES notation.

For the molecule `CCCCC(=O)O[C@@]12CO[C@@H]1C[C@H](O)[C@@]1(C)C(=O)[C@H](OC(C)=O)C3=C(C)[C@@H](OC(=O)[C@H](O)C(NC(=O)c4ccccc4)c4ccccc4)C[C@@](O)([C@@H](OC(=O)c4ccccc4)C12)C3(C)C` (some centres undefined), the results for the IC50 in the data set with HCT-116 [1] and with HCT-116 [3] were 0.5 nM and 2 nM, respectively. Moreover, the Tubulin polymerization ratio in the data set with HCT-116 [2] was 1.04.
Regarding `CC(=O)O[C@H]1C(=O)[C@@]2(C)C([C@H](OC(=O)c3ccccc3)[C@]3(O)C[C@H](OC(=O)[C@H](O)C(NC(=O)c4ccccc4)c4ccccc4)C(C)=C1C3(C)C)[C@]1(OC(=O)N3CC3)CO[C@@H]1C[C@@H]2O` (some centres undefined), the IC50 was determined as 6.5 nM in the data set with HCT-116 [1] and 15.6 nM with HCT-116 [3].
`CC(=O)O[C@H]1C(=O)[C@@]2(C)C([C@H](OC(=O)c3ccccc3)[C@]3(O)C[C@H](OC(=O)[C@H](O)C(NC(=O)c4ccccc4)c4ccccc4)C(C)=C1C3(C)C)[C@]1(OC(=O)C3CCC3)CO[C@@H]1C[C@@H]2O` (some centres undefined): the values for the IC50 in the data set with HCT-116 [1] and in the data set on HCT-116 [3] were 0.38 nM and 1.5 nM, respectively. Further, the Tubulin polymerization ratio with HCT-116 [2] turned out to be 0.44. For the same molecule, the T/C entry in the data set with M109 is given as “Not Active”.
Take `CC(=O)O[C@H]1C(=O)[C@@]2(C)C([C@H](OC(=O)c3ccccc3)[C@]3(O)C[C@H](OC(=O)[C@H](O)C(NC(=O)c4ccccc4)c4ccccc4)C(C)=C1C3(C)C)[C@]1(OC(=O)C3CCCC3)CO[C@@H]1C[C@@H]2O` (some centres undefined): the figures for the IC50 with HCT-116 [1] and in the data set with HCT-116 [3] were 0.5 nM and 2 nM, respectively. The Tubulin polymerization ratio in the data set with HCT-116 [2] came to 1.54.
As for `CC(=O)O[C@H]1C(=O)[C@@]2(C)C([C@H](OC(=O)c3ccccc3)[C@]3(O)C[C@H](OC(=O)[C@H](O)C(NC(=O)c4ccccc4)c4ccccc4)C(C)=C1C3(C)C)[C@]1(O)CO[C@@H]1C[C@@H]2O` (some centres undefined), the results for the IC50 in the data set on HCT-116 [1] and with HCT-116 [3] were over 200 nM and over 1000 nM, respectively. Besides, in the data set with HCT-116 [2], the Tubulin polymerization ratio is given as 200.
In the case of `CC(=O)O[C@H]1C(=O)[C@@]2(C)C([C@H](OC(=O)c3ccccc3)[C@]3(O)C[C@H](OC(=O)[C@H](O)C(NC(=O)c4ccccc4)c4ccccc4)C(C)=C1C3(C)C)[C@]1(OC(=O)n3ccnc3)CO[C@@H]1C[C@@H]2O` (some centres undefined), the IC50 amounted to 251 nM with HCT-116 [1] and 803 nM with HCT-116 [3]. For the same molecule, the Tubulin polymerization ratio in the data set with HCT-116 [2] is 263.
`CC(=O)O[C@H]1C(=O)[C@@]2(C)C([C@H](OC(=O)c3ccccc3)[C@]3(O)C[C@H](OC(=O)[C@H](O)C(NC(=O)c4ccccc4)c4ccccc4)C(C)=C1C3(C)C)[C@]1(OC(=O)NC3CCC3)CO[C@@H]1C[C@@H]2O` (some centres undefined): the 50% inhibitory concentration (IC50) with HCT-116 [1] stood at 2.3 nM; in the data set on HCT-116 [3], 9.2 nM. Also, the Tubulin polymerization ratio with HCT-116 [2] amounted to 0.76.
Take `CCC(=O)O[C@@]12CO[C@@H]1C[C@H](O)[C@@]1(C)C(=O)[C@H](OC(C)=O)C3=C(C)[C@@H](OC(=O)[C@H](O)C(NC(=O)c4ccccc4)c4ccccc4)C[C@@](O)([C@@H](OC(=O)c4ccccc4)C12)C3(C)C` (some centres undefined): the IC50 worked out at 0.5 nM in the data set with HCT-116 [1] and 2 nM in the data set with HCT-116 [3]. Also, in the data set on HCT-116 [2], the Tubulin polymerization ratio was 1.5.
As for `COC(=O)O[C@@]12CO[C@@H]1C[C@H](O)[C@@]1(C)C(=O)[C@H](OC(C)=O)C3=C(C)[C@@H](OC(=O)[C@H](O)C(NC(=O)c4ccccc4)c4ccco4)C[C@@](O)([C@@H](OC(=O)c4ccccc4)C12)C3(C)C` (some centres undefined), the IC50 was 0.57 nM in the data set on HCT-116 [1] and 2.3 nM with HCT-116 [3]. Also, the Tubulin polymerization ratio in the data set on HCT-116 [2] was determined as 0.33. For the same molecule, in the data set on M109, the T/C entry is “Not Active”.
`CC(=O)O[C@H]1C(=O)[C@@]2(C)C([C@H](OC(=O)c3ccccc3)[C@]3(O)C[C@H](OC(=O)[C@H](O)C(NC(=O)c4ccccc4)c4ccccc4)C(C)=C1C3(C)C)[C@]1(OC(=O)c3ccc(F)cc3)CO[C@@H]1C[C@@H]2O` (some centres undefined): the IC50 with HCT-116 [1] is 198 nM; with HCT-116 [3], 790 nM. In the data set with HCT-116 [2], the Tubulin polymerization ratio worked out at 61.
As for `C=CC(=O)O[C@@]12CO[C@@H]1C[C@H](O)[C@@]1(C)C(=O)[C@H](OC(C)=O)C3=C(C)[C@@H](OC(=O)[C@H](O)C(NC(=O)c4ccccc4)c4ccccc4)C[C@@](O)([C@@H](OC(=O)c4ccccc4)C12)C3(C)C` (some centres undefined), the IC50 with HCT-116 [1] stood at 1.5 nM; in the data set with HCT-116 [3] it was 6 nM. Moreover, in the data set on HCT-116 [2], the Tubulin polymerization ratio amounted to 0.42.
For the molecule `CC(=O)O[C@H]1C(=O)[C@@]2(C)C([C@H](OC(=O)c3ccccc3)[C@]3(O)C[C@H](OC(=O)[C@H](O)C(NC(=O)c4ccccc4)c4ccccc4)C(C)=C1C3(C)C)[C@]1(OC(=O)CF)CO[C@@H]1C[C@@H]2O` (some centres undefined), the IC50 in the data set with HCT-116 [1] worked out at 1.75 nM; with HCT-116 [3], 7 nM. Also, in the data set on HCT-116 [2], the Tubulin polymerization ratio amounted to 1.2.
For `CCCOC(=O)O[C@@]12CO[C@@H]1C[C@H](O)[C@@]1(C)C(=O)[C@H](OC(C)=O)C3=C(C)[C@@H](OC(=O)[C@H](O)C(NC(=O)c4ccccc4)c4ccccc4)C[C@@](O)([C@@H](OC(=O)c4ccccc4)C12)C3(C)C` (some centres undefined), in that order: 0.67 nM, 2.6 nM and 0.76.
With `C/C=C/C(=O)O[C@@]12CO[C@@H]1C[C@H](O)[C@@]1(C)C(=O)[C@H](OC(C)=O)C3=C(C)[C@@H](OC(=O)[C@H](O)C(NC(=O)c4ccccc4)c4ccccc4)C[C@@](O)([C@@H](OC(=O)c4ccccc4)C12)C3(C)C` (some centres undefined), the IC50 with HCT-116 [1] is 0.58 nM; with HCT-116 [3], 2.3 nM. In addition, in the data set with HCT-116 [2], the Tubulin polymerization ratio amounted to 0.7.
As to `CCCCCC(=O)O[C@@]12CO[C@@H]1C[C@H](O)[C@@]1(C)C(=O)[C@H](OC(C)=O)C3=C(C)[C@@H](OC(=O)[C@H](O)C(NC(=O)c4ccccc4)c4ccccc4)C[C@@](O)([C@@H](OC(=O)c4ccccc4)C12)C3(C)C` (some centres undefined), the IC50 turned out to be 1.5 nM in the data set with HCT-116 [1] and 6 nM in the data set on HCT-116 [3]. For the same molecule, the Tubulin polymerization ratio with HCT-116 [2] turned out to be 3.4.
As to `CCCOC(=O)O[C@@]12CO[C@@H]1C[C@H](O)[C@@]1(C)C(=O)[C@H](OC(C)=O)C3=C(C)[C@@H](OC(=O)[C@H](O)C(NC(=O)OC(C)(C)C)c4ccco4)C[C@@](O)([C@@H](OC(=O)c4ccccc4)C12)C3(C)C` (some centres undefined), the IC50 came to 0.6 nM with HCT-116 [1] and 3 nM with HCT-116 [3]. Moreover, the Tubulin polymerization ratio in the data set with HCT-116 [2] came out at 0.71. For the same molecule, the T/C result in the data set on M109 is reported as “Not Active”.
With `CC(=O)O[C@H]1C(=O)[C@@]2(C)C([C@H](OC(=O)c3ccccc3)[C@]3(O)C[C@H](OC(=O)[C@H](O)C(NC(=O)c4ccccc4)c4ccccc4)C(C)=C1C3(C)C)[C@]1(OC(=O)C(C)C)CO[C@@H]1C[C@@H]2O` (some centres undefined), the IC50 in the data set on HCT-116 [1] worked out at 1.25 nM; in the data set with HCT-116 [3], 5 nM. Also, the Tubulin polymerization ratio in the data set with HCT-116 [2] was 0.46.
For `CC(=O)O[C@H]1C(=O)[C@@]2(C)C([C@H](OC(=O)c3ccccc3)[C@]3(O)C[C@H](OC(=O)[C@H](O)C(NC(=O)c4ccccc4)c4ccccc4)C(C)=C1C3(C)C)[C@]1(OC(=O)C(Cl)(Cl)Cl)CO[C@@H]1C[C@@H]2O` (some centres undefined) the same measures were 1.1 nM, 4 nM and 0.68.
On to `CC(=O)O[C@H]1C(=O)[C@@]2(C)C([C@H](OC(=O)c3ccccc3)[C@]3(O)C[C@H](OC(=O)[C@H](O)C(NC(=O)c4ccccc4)c4ccccc4)C(C)=C1C3(C)C)[C@]1(OC(=O)c3ccccc3)CO[C@@H]1C[C@@H]2O` (some centres undefined), for which the values for the IC50 in the data set on HCT-116 [1] and in the data set on HCT-116 [3] were 103 nM and 410 nM, respectively. In addition, the Tubulin polymerization ratio with HCT-116 [2] is given as over 60.

One may read the IC50 as the concentration that gives 50% inhibition. Low values mean higher potency, high ones lower potency.
